Laboratory results: patent US9850203B2, “Autotaxin inhibitor compounds” (PharmAkea, Inc., priority 2013, dated 2017)

Molecular target: human autotaxin (ATX) (Homo sapiens (Human), UniProt Q13822)
Experiment: Human Autotaxin Assay
Format: biochemical
Settings: concentrated conditioned media from Hep3B cells; LPC substrate, choline release
Protocol: ATX activity is assayed in concentrated conditioned media from Hep3B human hepatocellular carcinoma cells by measuring the amount of choline released from the substrate, lysophosphatidylcholine (LPC) as it is cleaved to LPA. Conditioned media is collected from confluent Hep3B cells and concentrated 20-fold using Centriprep-30 filter devices (Millipore). To assay for autotaxin inhibition, 10-20 μL of the concentrated conditioned media is incubated with 2.5 μL of a test compound in DMSO and 72.5-82.5 μL lyso-PLD buffer (100 mM Tris pH 9, 500 mM NaCl, 5 mM MgCl2, 5 mM CaCl2, 0.05% Triton X-100 in the presence or absence of 0.2% fatty-acid-free human serum albumin) for 15 min at 37° C. After the 15 min incubation, 5 uL of 2 mM LPC (14:0; Avanti Polar Lipids Cat#855575C) diluted in lyso-PLD buffer is added for a final concentration of 100 uM and the incubation continues for 1.5-3 hours at 37° C.

Compound | IC50
Cc1c(Sc2cccc(C(=O)O)c2)c2ccc(Cl)c(F)c2n1CC(=O)N1CCC(Cc2ccc(F)cc2)C1 (single isomer, unassigned; enantiomer a) [Compound 1-65, 3-((6-Chloro-7-fluoro-1-(2-(3-(4-fluorobenzyl)pyrrolidin-1-yl)-2-oxoethyl)-2-methyl-1H-indol-3-yl)thio)benzoic acid Enantiomer A] | ≤ 500 nM
Cc1c(Sc2cccc(C(=O)O)c2)c2ccc(Cl)c(F)c2n1CC(=O)N1CCC(c2ccc(F)cc2)C1 (single isomer, unassigned; enantiomer a) [Compound 1-74, 3-((6-Chloro-7-fluoro-1-(2-(3-(4-fluorophenyl)pyrrolidin-1-yl)-2-oxoethyl)-2-methyl-1H-indol-3-yl)thio)benzoic acid Enantiomer A] | 500 to 3000 nM
Cc1c(Sc2cccc(C(=O)O)c2)c2ccc(Cl)c(F)c2n1CC(=O)N1CCC(Cc2ccc(F)cc2)C1 (single isomer, unassigned; enantiomer b) [Compound 1-66, 3-((6-Chloro-7-fluoro-1-(2-(3-(4-fluorobenzyl)pyrrolidin-1-yl)-2-oxoethyl)-2-methyl-1H-indol-3-yl)thio)benzoic acid Enantiomer B] | 500 to 3000 nM
Cc1c(Sc2cccc(C(=O)O)c2)c2ccc(Cl)c(F)c2n1CC(=O)N1CCC(c2ccc(F)cc2)C1 (single isomer, unassigned; enantiomer b) [Compound 1-75, 3-((6-Chloro-7-fluoro-1-(2-(3-(4-fluorophenyl)pyrrolidin-1-yl)-2-oxoethyl)-2-methyl-1H-indol-3-yl)thio)benzoic acid Enantiomer B] | ≤ 500 nM
Cc1c(Sc2cccc(C(=O)O)c2)c2ccc(Cl)c(F)c2n1CC(=O)NC(C)C [Compound 1-1, 3-((6-Chloro-7-fluoro-1-(2-(isopropylamino)-2-oxoethyl)-2-methyl-1H-indol-3-yl)thio)benzoic acid] | ≤ 500 nM
Cc1c(Sc2cccc(C(=O)O)c2)c2ccc(Cl)c(F)c2n1CC(=O)NC1CCCCC1 [Compound 1-2, 3-((6-Chloro-1-(2-(cyclohexylamino)-2-oxoethyl)-7-fluoro-2-methyl-1H-indol-3-yl)thio)benzoic acid] | 500 to 3000 nM
Cc1c(Sc2cccc(C(=O)O)c2)c2ccc(Cl)c(F)c2n1CC(=O)Nc1ccccc1 [Compound 1-3, 3-((6-Chloro-7-fluoro-2-methyl-1-(2-oxo-2-(phenylamino)ethyl)-1H-indol-3-yl)thio)benzoic acid] | 500 to 3000 nM
Cc1c(Sc2cccc(C(=O)O)c2)c2ccc(Cl)c(F)c2n1CC(=O)Nc1cc(Cl)cc(Cl)c1 [Compound 1-4, 3-((6-Chloro-1-(2-((3,5-dichlorophenyl)amino)-2-oxoethyl)-7-fluoro-2-methyl-1H-indol-3-yl)thio)benzoic acid] | > 3000 nM
Cc1c(Sc2cccc(C(=O)O)c2)c2ccc(Cl)c(F)c2n1CC(=O)NCC(F)(F)F [Compound 1-5, 3-((6-Chloro-7-fluoro-2-methyl-1-(2-oxo-2-((2,2,2-trifluoroethyl)amino)ethyl)-1H-indol-3-yl)thio)benzoic acid] | ≤ 500 nM
Cc1c(Sc2cccc(C(=O)O)c2)c2ccc(Cl)c(F)c2n1CC(=O)Nc1cnn(C)c1 [Compound 1-6, 3-((6-Chloro-7-fluoro-2-methyl-1-(2-((1-methyl-1H-pyrazol-4-yl)amino)-2-oxoethyl)-1H-indol-3-yl)thio)benzoic acid] | ≤ 500 nM
Cc1c(Sc2cccc(C(=O)O)c2)c2ccc(Cl)c(F)c2n1CC(=O)N(C)C [Compound 1-7, 3-((6-Chloro-1-(2-(dimethylamino)-2-oxoethyl)-7-fluoro-2-methyl-1H-indol-3-yl)thio)benzoic acid] | ≤ 500 nM
Cc1c(Sc2cccc(C(=O)O)c2)c2ccc(Cl)c(F)c2n1CC(=O)N(C)c1ccccc1 [Compound 1-8, 3-((6-Chloro-7-fluoro-2-methyl-1-(2-(methyl(phenyl)amino)-2-oxoethyl)-1H-indol-3-yl)thio)benzoic acid] | 500 to 3000 nM
Cc1c(Sc2cccc(C(=O)O)c2)c2ccc(Cl)c(F)c2n1CC(=O)N1CCCC1 [Compound 1-9, 3-((6-Chloro-7-fluoro-2-methyl-1-(2-oxo-2-(pyrrolidin-1-yl)ethyl)-1H-indol-3-yl)thio)benzoic acid] | ≤ 500 nM
Cc1c(Sc2cccc(C(=O)O)c2)c2ccc(Cl)c(F)c2n1CC(=O)N1CCCCC1 [Compound 1-10, 3-((6-Chloro-7-fluoro-2-methyl-1-(2-oxo-2-(piperidin-1-yl)ethyl)-1H-indol-3-yl)thio)benzoic acid] | ≤ 500 nM
Cc1c(Sc2cccc(C(=O)O)c2)c2ccc(Cl)c(F)c2n1CC(=O)Nc1cnoc1 [Compound 1-11, 3-((6-Chloro-7-fluoro-1-(2-(isoxazol-4-ylamino)-2-oxoethyl)-2-methyl-1H-indol-3-yl)thio)benzoic acid] | 500 to 3000 nM
Cc1c(Sc2cccc(C(=O)O)c2)c2ccc(Cl)c(F)c2n1CC(=O)N1CCC2(CC1)CNC(=O)O2 [Compound 1-12] | ≤ 500 nM
Cc1c(Sc2cccc(C(=O)O)c2)c2ccc(Cl)c(F)c2n1CC(=O)N1CCC(OCc2ccc(F)c(F)c2)CC1 [Compound 1-13, 3-((6-Chloro-1-(2-(4-((3,4-difluorobenzyl)oxy)piperidin-1-yl)-2-oxoethyl)-7-fluoro-2-methyl-1H-indol-3-yl)thio)benzoic acid] | ≤ 500 nM
Cc1c(Sc2cccc(C(=O)O)c2)c2ccc(Cl)c(F)c2n1CC(=O)N1CCc2ccccc21 [Compound 1-14, 3-((6-Chloro-7-fluoro-1-(2-(indolin-1-yl)-2-oxoethyl)-2-methyl-1H-indol-3-yl)thio)benzoic acid] | ≤ 500 nM
Cc1c(Sc2cccc(C(=O)O)c2)c2ccc(Cl)c(F)c2n1CC(=O)N1CCCC(Cc2ccc(F)cc2)C1 (stereo not drawn) [Compound 1-15, 3-((6-Chloro-7-fluoro-1-(2-(3-(4-fluorobenzyl)piperidin-1-yl)-2-oxoethyl)-2-methyl-1H-indol-3-yl)thio)benzoic acid] | 500 to 3000 nM
Cc1c(Sc2cccc(C(=O)O)c2)c2ccc(Cl)c(F)c2n1CC(=O)N1CCC2(CC1)CC(=O)C2 [Compound 1-18, 3-((6-Chloro-7-fluoro-2-methyl-1-(2-oxo-2-(2-oxo-7-azaspiro[3.5]nonan-7-yl)ethyl)-1H-indol-3-yl)thio)benzoic acid] | ≤ 500 nM
Cc1c(Sc2cccc(C(=O)O)c2)c2ccc(Cl)c(F)c2n1CC(=O)N1CCC2(CC1)CC(C#N)C2 [Compound 1-19, 3-((6-Chloro-1-(2-(2-cyano-7-azaspiro[3.5]nonan-7-yl)-2-oxoethyl)-7-fluoro-2-methyl-1H-indol-3-yl)thio)benzoic acid] | ≤ 500 nM
Cc1c(Sc2cccc(C(=O)O)c2)c2ccc(Cl)c(F)c2n1CC(=O)N1CCC(OCc2ccc(F)cc2)C1 (stereo not drawn) [Compound 1-22, 3-((6-Chloro-7-fluoro-1-(2-(3-((4-fluorobenzyl)oxy)pyrrolidin-1-yl)-2-oxoethyl)-2-methyl-1H-indol-3-yl)thio)benzoic acid] | ≤ 500 nM
Cc1c(Sc2cccc(C(=O)O)c2)c2ccc(Cl)c(F)c2n1CCC(=O)N1CCCC1 [Compound 1-25, 3-((6-Chloro-7-fluoro-2-methyl-1-(3-oxo-3-(pyrrolidin-1-yl)propyl)-1H-indol-3-yl)thio)benzoic acid] | ≤ 500 nM
Cc1c(Sc2cccc(C(=O)O)c2)c2ccc(Cl)c(F)c2n1CCC(=O)N1CCc2ccccc21 [Compound 1-26, 3-((6-Chloro-7-fluoro-1-(3-(indolin-1-yl)-3-oxopropyl)-2-methyl-1H-indol-3-yl)thio)benzoic acid] | ≤ 500 nM
Cc1c(Sc2cccc(C(=O)O)c2)c2ccc(Cl)c(F)c2n1CC(=O)N1CC2(CC2)c2ccccc21 [Compound 1-31, 3-((6-Chloro-7-fluoro-2-methyl-1-(2-oxo-2-(spiro[cyclopropane-1,3′-indolin]-1′-yl)ethyl)-1H-indol-3-yl)thio)benzoic acid] | ≤ 500 nM
Cc1c(Sc2cccc(C(=O)O)c2)c2ccc(Cl)c(F)c2n1CC(=O)N1CC2(CC2)c2cc(F)ccc21 [Compound 1-32, 3-((6-Chloro-7-fluoro-1-(2-(5′-fluorospiro[cyclopropane-1,3′-indolin]-1′-yl)-2-oxoethyl)-2-methyl-1H-indol-3-yl)thio)benzoic acid] | ≤ 500 nM
Cc1c(Sc2cccc(C(=O)O)c2)c2ccc(Cl)c(F)c2n1CC(=O)N1CC2(CCC2)c2c(F)cccc21 [Compound 1-33, 3-((6-Chloro-7-fluoro-1-(2-(4′-fluorospiro[cyclobutane-1,3′-indolin]-1′-yl)-2-oxoethyl)-2-methyl-1H-indol-3-yl)thio)benzoic acid] | ≤ 500 nM
Cc1c(Sc2cccc(C(=O)O)c2)c2ccc(Cl)c(F)c2n1CC(=O)N1CC(C)(C)c2ccc(F)cc21 [Compound 1-34, 3-((6-Chloro-7-fluoro-1-(2-(6-fluoro-3,3-dimethylindolin-1-yl)-2-oxoethyl)-2-methyl-1H-indol-3-yl)thio)benzoic acid] | ≤ 500 nM
Cc1c(Sc2cccc(C(=O)O)c2)c2ccc(Cl)c(F)c2n1CC(=O)N1CCCC2(CNC(=O)C2)C1 (stereo not drawn) [Compound 1-35, 3-((6-Chloro-7-fluoro-2-methyl-1-(2-oxo-2-(3-oxo-2,7-diazaspiro[4.5]decan-7-yl)ethyl)-1H-indol-3-yl)thio)benzoic acid] | ≤ 500 nM
Cc1c(Sc2cccc(C(=O)O)c2)c2ccc(Cl)c(F)c2n1CC(=O)N1CCCc2ccccc21 [Compound 1-36, 3-((6-Chloro-1-(2-(3,4-dihydroquinolin-1(2H)-yl)-2-oxoethyl)-7-fluoro-2-methyl-1H-indol-3-yl)thio)benzoic acid] | ≤ 500 nM
